Literature values in US20140147549A1, “CARBOHYDRATE BAR” (NESTEC S.A., priority 2008, published 2014).

Settings: previous research data, single carbohydrate source alone

Structure (SMILES): O=C(CO)[C@@H](O)[C@H](O)[C@H](O)CO [fructose]
- peak exogenous carbohydrate oxidation, single carbohydrate source: ~0.4 g/min
